Assays:
[1] = tested on: F11 cells transfected with V642I APP cDNA; experiment: V642I APP-induced F11 cell death, trypan blue exclusion assay; format: cell-based
Method: (§1) F11 cells (Platika, D. et al. (1985) Proc. Natl. Acad. Sci. U.S.A. 82, 3499-3503; Yamatsuji, T. et al. (1996) Science 272, 1349-1352) were cultured in HamF-12 media containing 18% fetal bovine serum (FBS) and antibiotics. 7×10^4/well of F11 cells were seeded into a 6-well plate; cultured in HamF-12 containing 18% FBS for 12 to 16 hours; transfected 3 hours with plasmids encoding FAD genes and plasmids encoding HN (pHN, and such) by lipofection in the absence of serum (1 μg of FAD cDNA expression plasmid, 1 μg of HN cDNA expression plasmid, 4 μl of LipofectAMINE, 8 μl of Plus reagent); and then, were cultured for 2 hours in HamF-12 media containing 18% FBS. Then, culture media were exchanged with HamF-12 media containing 10% FBS; and the cells were cultured for additional 67 hours. 72 hours after transfection, cell death was measured by trypan blue exclusion assay. Experiments using synthetic HN polypeptides were conducted as follows: F11 cells (at 7×10^4/well in a 6-well plate) were transfected 3 hours with FAD genes in the absence of serum, as mentioned above; after cultivation for 2 hours in HamF-12 media containing 18% FBS, the cells were cultured for 67 hours in HamF-12 media containing 10% FBS with various concentrations of HN polypeptides; and cell death was measured by trypan blue exclusion assay. ALS-associated mutant cDNAs of SOD1 were also similarly transfected, and examined for their neurotoxicity.
(§2) Trypan blue exclusion assay was performed as follows. Without prewashing, the cells were suspended with gentle pipetting into a serum-free media. 50 μl of 0.4% trypan blue solution (Sigma, Cat. #T-8154) were added (final concentration of 0.08%) to 200 μl cell suspension, and the suspension was mixed at room temperature. Within 3 minutes of the trypan blue solution addition, stained cells were counted. Cell mortality was determined [100-cell survival rate (%)] based on the stained cell count. LDH assay was performed using a kit (LDH-Cytotoxic Test; Wako Pure Chemical Industries, Cat. #299-50601) by sampling 6 μl of media in which neurons were cultured. Calcein staining was performed as described in literature (Bozyczko-Coyne, D. et al. (1993) Journal of Neuroscience Methods 50, 205-216). Specifically, 6 μM Calcein-AM (3′, 6′-Di-(O-acetyl)-2′-7′-bis[N,N-bis(carboxymethyl)aminomethyl]fluorescein, tetraacetoxymethyl ester; Dojindo, Cat. #349-07201) was added to the neurons; and 30 minutes or longer after Calcein-AM treatment, fluorescence (ex=490 nm, em=515 nm) was observed by fluorescence microscopy, and measured by a spectrometer. Specific fluorescence was calculated by subtracting basal fluorescence from total fluorescence. Basal fluorescence was assigned to be the value calculated from linear trypan blue positivity-fluorescence intensity relationship, corresponding to 100% trypan blue positivity.

[2] = tested on: F11 cells transfected with FAD genes (V642I APP, NL-APP, M146L PS-1, N141I PS-2); experiment: FAD gene-induced F11 cell death, trypan blue exclusion assay; format: cell-based, rat/mouse hybrid
Method: as §1, §2

[3] = tested on: primary cultured cortical neurons treated with Aβ1-43; experiment: Aβ1-43-induced cell death of primary cultured cortical neurons, trypan blue exclusion assay; format: cell-based; details: 25 μM Aβ1-43, confirmed by LDH release and Calcein staining
Method: Primary culture of mouse cortical neurons was performed in poly-D-lysine-coated 24-well plates (Sumitomo Bakelite) in the absence of serum and in the presence of N2 supplement, as described in literature (Ecksioglu, Y. Z. et al. (1994) Brain Res. 644, 282-90). The purity of neurons prepared according to the method was >98%. The prepared neurons (1.25×10^5/well, 250 μl media/well) were preincubated in the absence or presence of 10 nM or 10 μM sHN polypeptides for 16 hours; and were treated with 25 μM Aβ1-43 in the absence or presence of sHN polypeptides at the same concentrations for 24 to 72 hours. Since primary cultured neurons are damaged even by temporary dryness during medium exchange, treatment of the cells by Aβ1-43 was performed as follows. First, half of the volume of the old medium (125 μl) was discarded. Then, 125 μl of pre-warmed fresh medium containing 50 μM Aβ1-43 and sHN with a concentration indicated above were added to the culture.
as §2

[4] = tested on: primary cultured cortical neurons treated with Aβ1-43; experiment: Aβ1-43-induced cell damage of primary cultured cortical neurons, LDH release; format: cell-based, mouse
Method: Primary culture of mouse cortical neurons was performed in poly-D-lysine-coated 24-well plates (Sumitomo Bakelite) in the absence of serum and in the presence of N2 supplement, as described in literature (Ecksioglu, Y. Z. et al. (1994) Brain Res. 644, 282-90). The purity of neurons prepared according to the method was >98%. The prepared neurons (1.25×10^5/well, 250 μl media/well) were preincubated in the absence or presence of 10 nM or 10 μM sHN polypeptides for 16 hours; and were treated with 25 μM Aβ1-43 in the absence or presence of sHN polypeptides at the same concentrations for 24 to 72 hours. […]
(§3) Trypan blue exclusion assay was performed as follows. […] Within 3 minutes of the trypan blue solution addition, stained cells were counted. Cell mortality was determined [100-cell survival rate (%)] based on the stained cell count. […] Specifically, 6 μM Calcein-AM (3′, 6′-Di-(O-acetyl)-2′-7′-bis[N,N-bis(carboxymethyl)aminomethyl]fluorescein, tetraacetoxymethyl ester; Dojindo, Cat. #349-07201) was added to the neurons; and 30 minutes or longer after Calcein-AM treatment, fluorescence (ex=490 nm, em=515 nm) was observed by fluorescence microscopy, and measured by a spectrometer. Specific fluorescence was calculated by subtracting basal fluorescence from total fluorescence. […]

[5] = tested on: primary cultured neurons treated with etoposide; experiment: Etoposide toxicity on primary cultured neurons; format: cell-based, mouse; details: 20 μM etoposide; 10 μM polypeptide
Method: 25 μM Aβ1-43 was added to primary cultured cortical neurons in the presence (at indicated concentrations) or absence of sHN, sHNG, or sHNA. Addition of HN polypeptides was performed similarly to that described in FIG. 14. 72 hours after the initiation of Aβ treatment, cell death was measured by trypan blue exclusion assay. Primary cultured neurons treated similarly for 72 hours with 20 μM etoposide in the presence or absence of 10 μM sHN or HN derivatives were used as the positive controls in these experiments. Similar experiments were performed at least three times, and reproducible results were obtained. Mean ±S.D. values of three independent experiments are indicated in the graphs. […]
as §3

[6] = tested on: F11/EcR cells transfected with ecdysone-inducible Q79 plasmid; experiment: Polyglutamine Q79-induced F11/EcR cell death (ecdysone-inducible), trypan blue exclusion assay; format: cell-based; details: 1 μM polypeptide, 72 hours
Method: F11/EcR cell experiment using ecdysone was conducted as follows: F11/EcR cells were seeded at 7×10^4/well into a 6-well plate; cultured for 12 to 16 hours in HamF-12 media containing 18% FBS; and were similarly transfected in the absence of serum for 3 hours with 1 μg of ecdysone-inducible plasmid alone, or with 1 μg of HN-encoding plasmid, as mentioned above. After culturing for 12 to 16 hours in HamF-12 media containing 18% FBS, the cells were cultured for 2 hours in HamF-12 media containing 10% FBS, then ecdysone (Ponasterone) was added to the media (final concentration of 40 μM). Cell death was measured 72 hours after ecdysone treatment. Experiments using synthetic HN polypeptides were conducted as follows: cells were similarly transfected for 3 hours with FAD genes in the absence of serum; cultured for 12 to 16 hours in HamF-12 media containing 18% FBS; cultured for 2 hours in HamF-12 media containing 10% FBS and various concentrations of HN polypeptide; and then, 40 μM Ponasterone was added to the media. Cell death was measured by trypan blue exclusion assay after 72 hours from the ecdysone treatment. HD/SCA-associated Q79 cDNAs were also similarly transfected, and the neurotoxicity was tested.
Trypan blue exclusion assay was performed as follows. […] Within 3 minutes of the trypan blue solution addition, stained cells were counted. Cell mortality was determined [100-cell survival rate (%)] based on the stained cell count. […] Specifically, 6 μM Calcein-AM (3′, 6′-Di-(O-acetyl)-2′-7′-bis[N,N-bis(carboxymethyl)aminomethyl]fluorescein, tetraacetoxymethyl ester; Dojindo, Cat. #349-07201) was added to the neurons; and 30 minutes or longer after Calcein-AM treatment, fluorescence (ex=490 nm, em=515 nm) was observed by fluorescence microscopy, and measured by a spectrometer. Specific fluorescence was calculated by subtracting basal fluorescence from total fluorescence. Basal fluorescence was assigned to be the value calculated from linear trypan blue positivity-fluorescence intensity relationship, corresponding to 100% trypan blue positivity.

[7] = tested on: F11 cells transfected with SOD1 mutants (A4T, G85R, G93A); experiment: ALS-associated SOD1 mutant-induced F11 cell death, trypan blue exclusion assay; format: cell-based, rat/mouse hybrid; details: 100 μM polypeptide
Method: as §1, §3

[8] = tested on: F11/EcR cells transfected with ecdysone-inducible FAD gene plasmid; experiment: Ecdysone-induced FAD gene expression F11/EcR cell death, trypan blue exclusion assay; format: cell-based; details: 1 μM; NL-APP, V642I APP, M146L PS-1, N141I PS-2; ecdysone 72 hours
Method: F11/EcR cell experiment using ecdysone was conducted as follows: F11/EcR cells were seeded at 7×10^4/well into a 6-well plate; cultured for 12 to 16 hours in HamF-12 media containing 18% FBS; and were similarly transfected in the absence of serum for 3 hours with 1 μg of ecdysone-inducible plasmid alone, or with 1 μg of HN-encoding plasmid, as mentioned above. After culturing for 12 to 16 hours in HamF-12 media containing 18% FBS, the cells were cultured for 2 hours in HamF-12 media containing 10% FBS, then ecdysone (Ponasterone) was added to the media (final concentration of 40 μM). Cell death was measured 72 hours after ecdysone treatment. […] Cell death was measured by trypan blue exclusion assay after 72 hours from the ecdysone treatment. […]
as §3, with “spectrometer.” for “spectrometer. Specific fluorescence was calculated by subtracting basal fluorescence from total fluorescence.”

[9] = tested on: primary cultured cortical neurons treated with Aβ1-43; experiment: Aβ1-43-induced cell death of primary cultured cortical neurons, trypan blue exclusion assay; format: cell-based; details: 100 ng/ml

In the case of `CC[C@H](C)[C@H](NC(=O)[C@H](CCC(=O)O)NC(=O)[C@H](CO)NC(=O)[C@@H](NC(=O)[C@H](CC(C)C)NC(=O)[C@H](CC(C)C)NC(=O)[C@H](CC(C)C)NC(=O)[C@H](CC(C)C)NC(=O)[C@H](CS)NC(=O)[C@H](CO)NC(=O)[C@H](Cc1ccccc1)NC(=O)CNC(=O)[C@H](CCCNC(=N)N)NC(=O)[C@@H]1CCCN1C(=O)[C@H](C)NC(=O)[C@@H](N)CCSC)[C@@H](C)O)C(=O)N[C@@H](CC(=O)O)C(=O)N[C@@H](CC(C)C)C(=O)N1CCC[C@H]1C(=O)N[C@H](C(=O)N[C@@H](CCCCN)C(=O)N[C@@H](CCCNC(=N)N)C(=O)N[C@@H](CCCNC(=N)N)C(=O)N[C@@H](C)C(=O)O)C(C)C` [sHN], the “suppression of V642I APP-induced cell death” value ([1]; 10 nM polypeptide) is reported as “extremely weak suppression”, the “suppression of V642I APP-induced cell death” value ([1]; 10 μM polypeptide) is reported as “dramatically suppressed” and the IC50 ([1]; 72 h) is reported as ~100 nM. The “cell mortality (%)” value ([1]; V642I APP cDNA, treated with 10 μM sHN polypeptides, 72 hours, mean ±S.D.) was 14.4 ± 1.2 %, the “concentration blocking neuronal death induced by the FAD genes” value ([2]; NL-APP, M146L PS-1, N141I PS-2) was 1 µM and the “extracellular concentration at which neuronal death is suppressed” value ([2]; chemically synthesized polypeptide) was ≥ 10 nM. The “concentration of maximal (saturation) suppression of neuronal death” value ([2]; four types of AD genes, listed as Humanin) was “about 10 μM”, the “effect on Aβ1-43-induced cell death” value ([3]; 10 nM polypeptide) was “did not show any effect” and the “effect on Aβ1-43-induced cell death” value ([3]; 10 μM polypeptide) was “completely restored to a level observed under basal conditions”. The “effect on cell damage (LDH released) by Aβ1-43” value ([4]; 25 μM Aβ1-43, 10 μM polypeptide) was “completely restored to a level observed under basal conditions”, the “effect on toxic effect of etoposide” value [5] was “could not prevent” and the “effect on Q79-induced cell death, synthetic polypeptide” value [6] was “Extensive cell death”. The “effect on SOD1 mutant-induced cell death, synthetic polypeptide” value [7] was “couldn't be suppressed” and the “effect on cell death by ecdysone-induced FAD genes, synthetic polypeptide” value [8] was “significant suppressive effect”.

“NGF: NGF, tested at 100 ng/ml against Aβ-induced neuronal death [reference compound]” was tested, and the “effect on increased LDH release induced by Aβ” value ([4]; 100 ng/ml) was “did not show effects” and the “effect on cell death of neurons induced by Aβ” value [9] was “did not show effects”.
